7 molecules from patent US8114875B2, “Substituted N-heterocyclic compounds and their use as dopamine D3 receptor ligands” (Abbott GmbH & Co. KG, priority 2004, dated 2012) can be followed below.

Experiment [1] deals with T1, human dopamine D2L receptors (long isoform) (Homo sapiens, UniProt P14416).
T1 construct: expressed in transfected cells; host or cells: HEK-293
Briefly: Dopamine D2L receptor binding, displacement of [125I]-iodospiperone. The following applies: ratio of Ki values from D3 and D2L binding assays, HEK-293 membranes. As for the experimental part: (§1) The substance to be tested was dissolved either in methanol/Chremophor® (BASFAG) or in dimethyl sulfoxide and then diluted with water to the desired concentration.
The mixture (1 ml) was composed of membranes from ˜10^6 HEK-293 cells with stably expressed human dopamine D2L receptors (long isoform) and 0.01 nM [^1251]-iodospiperone and incubation buffer (total binding) or with additional test substance (inhibition plot) or 1 μM haloperidol (nonspecific binding). Triplicate mixtures were carried out.
The incubation buffer contained 50 mM Tris, 120 mM NaCl, 5 mM KCl, 2 mM CaCl2, 2 mM MgCl2 and 0.1% bovine serum albumin. The buffer was adjusted to pH 7.4 with HCl.
(§2) Measurement and Evaluation:
(§3) After incubation at 25° C. for 60 minutes, the mixtures were filtered under vacuum through Whatman GF/B glass fiber filters using a cell harvester. The filters were transferred by a filter transfer system into scintillation vials. After addition of 4 ml of Ultima Gold® (Packard), the samples were shaken for one hour and then the radioactivity was counted in a beta counter (Packard, Tricarb 2000 or 2200CA). The cp values were converted into dpm by means of a standard quench series with the aid of the instrument's own program.
(§4) Evaluation of the inhibition plots took place by iterative nonlinear regression analysis using the Statistical Analysis System (SAS) similar to the “LIGAND” program described by Munson and Rodbard.

In experiment [2] the target is T2, human dopamine D3 receptors (Homo sapiens, UniProt P35462).
T2 construct: expressed in transfected cells; host or cells: HEK-293
T2 sequence (P35462 whole entry): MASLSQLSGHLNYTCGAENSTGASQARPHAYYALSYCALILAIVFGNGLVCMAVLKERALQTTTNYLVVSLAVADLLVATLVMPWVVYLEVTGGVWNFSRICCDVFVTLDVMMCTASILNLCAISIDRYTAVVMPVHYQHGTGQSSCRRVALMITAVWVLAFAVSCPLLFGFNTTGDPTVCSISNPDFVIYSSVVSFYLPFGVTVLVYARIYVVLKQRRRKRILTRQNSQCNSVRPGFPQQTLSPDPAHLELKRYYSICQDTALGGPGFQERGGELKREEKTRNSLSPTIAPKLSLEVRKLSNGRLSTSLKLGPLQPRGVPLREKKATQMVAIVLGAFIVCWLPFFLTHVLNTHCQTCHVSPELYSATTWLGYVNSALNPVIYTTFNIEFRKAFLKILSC
Briefly: Dopamine D3 receptor binding, displacement of [125I]-iodosulpride. The following applies: membranes from HEK-293 cells with stably expressed human D3 receptors; 0.1 nM [125I]-iodosulpride; 25° C., 60 minutes. The protocol: as §1
The mixture (0.250 ml) was composed of membranes from ˜106 HEK-293 cells with stably expressed human dopamine D3 receptors, 0.1 nM [^125I]-iodosulpride and incubation buffer (total binding) or with additional test substance (inhibition plot) or 1 μM spiperone (nonspecific binding). Triplicate mixtures were carried out.
The incubation buffer contained 50 mM Tris, 120 mM NaCl, 5 mM KCl, 2 mM CaCl2, 2 mM MgCl2 and 0.1% bovine serum albumin, 10 μM quinolone, 0.1% ascorbic acid (prepared fresh each day). The buffer was adjusted to pH 7.4 with HCl.
as §2, §3, §4

T1 sequence (P14416 whole entry, canonical isoform): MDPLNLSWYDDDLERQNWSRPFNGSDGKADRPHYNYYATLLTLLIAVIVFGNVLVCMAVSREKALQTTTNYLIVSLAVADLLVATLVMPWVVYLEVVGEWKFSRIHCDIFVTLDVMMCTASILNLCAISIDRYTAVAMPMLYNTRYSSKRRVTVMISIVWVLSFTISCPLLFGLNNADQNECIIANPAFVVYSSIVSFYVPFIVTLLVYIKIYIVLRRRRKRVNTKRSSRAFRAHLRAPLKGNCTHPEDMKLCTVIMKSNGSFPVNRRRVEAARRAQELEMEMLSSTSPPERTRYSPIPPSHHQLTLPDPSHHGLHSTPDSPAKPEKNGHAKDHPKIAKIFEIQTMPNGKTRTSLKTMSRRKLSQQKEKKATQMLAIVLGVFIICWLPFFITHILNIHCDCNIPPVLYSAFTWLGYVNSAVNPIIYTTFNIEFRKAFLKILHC

For `Cc1cn(CCCCN2CCN(Cc3ccc(Cl)cc3Cl)CC2)c(=O)[nH]c1=O` [Example 1, 1-{4-[4-(2,4-Dichlorobenzyl)piperazin-1-yl]butyl}-5-methyl-1H-pyrimidine-2,4-dione], the “Selectivity D3 vs. D2L (footnote: Ki(D2L)/Ki(D3))” value (from here on “Selectivity D3 vs. D2L”) in experiment [1] was 98. In experiment [2], this molecule returned a Ki of 0.0089 µM.

For the molecule `O=c1ccn(CCCCN2CCN(Cc3ccc(Cl)cc3Cl)CC2)c(=O)[nH]1` [Example 2, 1-{4-[4-(2,4-Dichlorobenzyl)piperazin-1-yl]butyl}-1H-pyrimidine-2,4-dione], the “Selectivity D3 vs. D2L” value in experiment [1] turned out to be 94. This molecule also came in with a Ki in experiment [2] of 0.0046 µM.

In the case of `O=c1nc(-c2ccccc2)ccn1CCCCN1CCN(Cc2ccc(Cl)cc2Cl)CC1` [Example 3, 1-{4-[4-(2,4-Dichlorobenzyl)piperazin-1-yl]butyl}-4-phenyl-1H-pyrimidin-2-one], in experiment [1], the “Selectivity D3 vs. D2L” value is 204. Moreover, in experiment [2], the affinity corresponds to a Ki of 0.00316 µM.

For the molecule `Cc1ccn(CCCCN2CCN(Cc3ccc(Cl)cc3Cl)CC2)c(=O)n1` [Example 4, 1-{4-[4-(2,4-Dichlorobenzyl)piperazin-1-yl]butyl}-4-methyl-1H-pyrimidin-2-one], the “Selectivity D3 vs. D2L” value in experiment [1] was 31. Also, in experiment [2], affinity was put at a Ki of 0.017 µM.

With `O=c1[nH]c(=O)n(CCCCN2CCN(Cc3ccc(Cl)cc3Cl)CC2)cc1F` [Example 5, 1-{4-[4-(2,4-Dichlorobenzyl)piperazin-1-yl]butyl}-5-fluoro-1H-pyrimidine-2,4-dione], the “Selectivity D3 vs. D2L” value in experiment [1] turned out to be 99. In experiment [2], affinity was put at a Ki of 0.0106 µM.

For the molecule `Cc1cn(CCCCN2CCN(Cc3ccc(Cl)c(Cl)c3)CC2)c(=O)[nH]c1=O` [Example 10, 1-{4-[4-(3,4-Dichlorobenzyl)piperazin-1-yl]butyl}-5-methyl-1H-pyrimidine-2,4-dione], the “Selectivity D3 vs. D2L” value in experiment [1] amounted to 51. For the same molecule, the inhibition constant (Ki) in experiment [2] was found to be 0.0181 µM.

Consider `Cc1cn(CCCCN2CCN(Cc3ccc(F)cc3Cl)CC2)c(=O)[nH]c1=O` [Example 11, 1-{4-[4-(2-Chloro-4-fluorobenzyl)piperazin-1-yl]butyl}-5-methyl-1H-pyrimidine-2,4-dione], for which the “Selectivity D3 vs. D2L” value in experiment [1] is reported as 48. In experiment [2], this molecule displayed a Ki of 0.0223 µM.
